Results reported in US9249102B2 (priority 2012, dated 2016).

Each compound was assayed on microfilaria of Dirofilaria immitis (assay: Method F: microfilaria of Dirofilaria immitis, survival at 24 hours). Conditions: survival of microfilaria at 24 hours.

Question: `N#Cc1ccc(NC2CCN(C(=O)CCCN3CCN(c4ccc5ccccc5c4)CC3)CC2)cc1C(F)(F)F` [Compound 15, 4-[(1-[4-[4-(naphthalen-2-yl)piperazin-1-yl]butanoyl]piperidin-4-yl)amino]-2-(trifluoromethyl)benzonitrile] was tested. Which EC50 did it give?
Answer: < 5 µg/mL

Question: With `CC(CN1CCN(c2cccc3ccccc23)CC1)C(=O)N1CCC(Nc2ccc([N+](=O)[O-])c(C(F)(F)F)c2)CC1` (stereo not shown) [Compound 19, 2-methyl-3-(4-naphthalen-1-yl-piperazin-1-yl)-1-[4-(4-nitro-3-trifluoromethyl-phenylamino)-piperidin-1-yl]-propan-1-one] as the compound, how does the EC50 read?
Answer: < 1 µg/mL

Question: How did the EC50 turn out when `O=C(CO[C@H]1CC[C@H](Nc2ccc([N+](=O)[O-])c(C(F)(F)F)c2)CC1)N1CCN(c2cccc3ccccc23)CC1` [Compound 20, 1-[4-(naphthalen-1-yl)piperazin-1-yl]-2-[(4-[[4-nitro-3-(trifluoromethyl)phenyl]amino]cyclohexyl)oxy]ethan-1-one] was run?
Answer: < 1 µg/mL

Each compound was assayed on Haemonchus contortus (assay: Method A: Haemonchus contortus L1 larvae, microtitre plate screen). Conditions: 96 h, read-out: motility inhibition.

Question: How did the inhibition at 5 µg/mL turn out when `O=C(CO[C@H]1CC[C@H](Nc2ccc([N+](=O)[O-])c(C(F)(F)F)c2)CC1)N1CCN(Cc2cc3cc(Cl)cc(Br)c3o2)CC1` [Compound 321, 2-[(4-[[4-nitro-3-(trifluoromethyl)phenyl]amino]cyclohexyl)-oxy]1-[4-(5-chloro-7-bromobenzofuran-2-ylmethyl)piperazin-1-yl]ethan-1-one] was run?
Answer: ≥ 90%

Question: With `O=C(CO[C@H]1CC[C@H](Nc2ccc([N+](=O)[O-])c(C(F)(F)F)c2)CC1)N1CCN(CCc2cc3cc(C(F)(F)F)ccc3o2)CC1` [Compound 324, 2-[4-[4-nitro-3-(trifluoromethyl)anilino]cyclohexoxy]-1-[4-[2-[5-(trifluoromethyl)benzofuran-2-yl]ethyl]piperazin-1-yl]ethanone] as the compound, how does the inhibition at 5 µg/mL read?
Answer: ≥ 90%

Question: For `CC(Cc1cc2cc(C(F)(F)F)ccc2o1)N1CCN(C(=O)CO[C@H]2CC[C@H](Nc3ccc([N+](=O)[O-])c(C(F)(F)F)c3)CC2)CC1` (stereo partly shown) [Compound 330, 1-[4-[1-methyl-2-[5-(trifluoromethyl)benzofuran-2-yl]ethyl]piperazin-1-yl]-2-[4-[4-nitro-3-(trifluoromethyl)anilino]cyclohexoxy]ethanone], which inhibition at 5 µg/mL is on record?
Answer: ≥ 90%

Question: With `O=C(CO[C@H]1CC[C@H](Nc2ccc([N+](=O)[O-])c(C(F)(F)F)c2)CC1)N1CCN(C(=O)c2nc3cc(C(F)(F)F)ccc3s2)CC1` [Compound 338, 2-[(4-[[4-nitro-3-(trifluoromethyl)phenyl]amino]cyclohexyl)-oxy]1-[4-[5-(trifluoromethyl)benzothiazole-2-carbonyl]piperazin-1-yl]ethan-1-one] as the compound, how does the inhibition at 5 µg/mL read?
Answer: ≥ 90%

Question: For `C[C@@H]1CN(Cc2ccc3cc(F)ccc3c2)[C@@H](C)CN1C(=O)CO[C@H]1CC[C@H](Nc2ccc([N+](=O)[O-])c(C(F)(F)F)c2)CC1` [Compound 357, 1-[(2R,5S)-4-(6-fluoro-naphthalen-2-ylmethyl)-2,5-dimethyl-piperazin-1-yl]-2-[4-(4-nitro-3-trifluoromethyl-phenylamino)-cyclohexyloxy]-ethanone], which inhibition at 5 µg/mL is on record?
Answer: ≥ 90%

Question: With `N#Cc1ccc(N[C@H]2CC[C@H](OCC(=O)N3CCN(c4nc5cc(C(F)(F)F)ccc5s4)CC3)CC2)cc1C(F)(F)F` [Compound 358, 4-(4-{2-oxo-2-[4-(5-trifluoromethyl-benzothiazol-2-yl)-piperazin-1-yl]-ethoxy}-cyclohexylamino)-2-trifluoromethyl-benzonitrile] as the compound, how does the inhibition at 5 µg/mL read?
Answer: ≥ 90%

Question: Which inhibition at 5 µg/mL does the source give for `O=C(CO[C@H]1CC[C@H](Nc2ccc(S(=O)(=O)C(F)(F)F)cc2)CC1)N1CCN(c2nc3cc(C(F)(F)F)ccc3s2)CC1` [Compound 364, 2-[4-(4-trifluoromethanesulfonyl-phenylamino)-cyclohexyloxy]-1-[4-(5-trifluoromethyl-benzothiazol-2-yl)-piperazin-1-yl]-ethanone] here?
Answer: ≥ 90%

Question: With `C[C@@H]1CN(Cc2nc3cc(C(F)(F)F)ccc3s2)[C@@H](C)CN1C(=O)CO[C@H]1CC[C@H](Nc2ccc([N+](=O)[O-])c(C(F)(F)F)c2)CC1` [Compound 365, 1-[(2R,5S)-2,5-dimethyl-4-(5-trifluoromethyl-benzothiazol-2-ylmethyl)-piperazin-1-yl]-2-[4-(4-nitro-3-trifluoromethyl-phenylamino)-cyclohexyloxy]-ethanone] as the compound, how does the inhibition at 5 µg/mL read?
Answer: ≥ 90%

Question: With `C[C@@H]1CN(Cc2nc3cc(F)ccc3s2)[C@@H](C)CN1C(=O)CO[C@H]1CC[C@H](Nc2ccc([N+](=O)[O-])c(C(F)(F)F)c2)CC1` [Compound 370, 1-[(2R,5S)-4-(5-fluoro-benzothiazol-2-ylmethyl)-2,5-dimethyl-piperazin-1-yl]-2-[4-(4-nitro-3-trifluoromethyl-phenylamino)-cyclohexyloxy]-ethanone] as the compound, how does the inhibition at 5 µg/mL read?
Answer: ≥ 90%

Question: With `C[C@@H]1CN(C(=O)CO[C@H]2CC[C@H](Nc3ccc([N+](=O)[O-])c(C(F)(F)F)c3)CC2)C[C@H](C)N1Cc1ccc2cc(F)ccc2c1` [Compound 372, 1-[(3S,5R)-4-(6-fluoro-naphthalen-2-ylmethyl)-3,5-dimethyl-piperazin-1-yl]-2-[4-(4-nitro-3-trifluoromethyl-phenylamino)-cyclohexyloxy]-ethanone] as the compound, how does the inhibition at 5 µg/mL read?
Answer: ≥ 90%

Question: `C[C@@H]1CN(C(=O)CO[C@H]2CC[C@H](Nc3ccc([N+](=O)[O-])c(C(F)(F)F)c3)CC2)C[C@H](C)N1Cc1ccc2cc(C(F)(F)F)ccc2c1` [Compound 374, 1-[(3S,5R)-3,5-dimethyl-4-(6-trifluoromethyl-naphthalen-2-ylmethyl)-piperazin-1-yl]-2-[4-(4-nitro-3-trifluoromethyl-phenylamino)-cyclohexyloxy]-ethanone] was tested. Which inhibition at 5 µg/mL did it give?
Answer: ≥ 90%

Question: For `O=C(CO[C@H]1CC[C@H](Nc2ccc([N+](=O)[O-])c(C(F)(F)F)c2)CC1)N1CCN(Cc2cc3cc(F)cc(F)c3o2)CC1` [Compound 375], which inhibition at 5 µg/mL is on record?
Answer: ≥ 90%

Question: Which inhibition at 5 µg/mL does the source give for `CC1(CN2CCN(C(=O)CO[C@H]3CC[C@H](Nc4ccc([N+](=O)[O-])c(C(F)(F)F)c4)CC3)CC2)Cc2cc(F)ccc2O1` (stereo partly shown) [Compound 377, 1-[4-[(5-fluoro-2-methyl-3H-benzofuran-2-yl)methyl]piperazin-1-yl]-2-[4-[4-nitro-3-(trifluoromethyl)anilino]cyclohexoxy]ethanone] here?
Answer: ≥ 90%

Question: With `C[C@@H]1CN(C(=O)CO[C@H]2CC[C@H](Nc3ccc([N+](=O)[O-])c(C(F)(F)F)c3)CC2)C[C@H](C)N1c1ccc2cc(F)ccc2n1` [Compound 381, 1-[(3S,5R)-4-(6-fluoro-quinolin-2-yl)-3,5-dimethyl-piperazin-1-yl]-2-[4-(4-nitro-3-trifluoromethyl-phenylamino)-cyclohexyloxy]-ethanone] as the compound, how does the inhibition at 5 µg/mL read?
Answer: ≥ 90%

Question: Which inhibition at 5 µg/mL does the source give for `O=C(CO[C@H]1CC[C@H](Nc2ccc([N+](=O)[O-])c(C(F)(F)F)c2)CC1)N1CCN(c2nc3cc(C(F)(F)F)ccc3o2)CC1` [Compound 400, 2-[4-(4-nitro-3-trifluoromethyl-phenylamino)-cyclohexyloxy]-1-[4-(5-trifluoromethyl-benzooxazol-2-yl)-piperazin-1-yl]-ethanone] here?
Answer: ≥ 90%

Question: Which inhibition at 5 µg/mL does the source give for `O=C(CO[C@H]1CC[C@H](Nc2ccc([N+](=O)[O-])c(C(F)(F)F)c2)CC1)N1CCN(c2nc3cc(OC(F)(F)F)ccc3o2)CC1` [Compound 401, 2-[4-(4-nitro-3-trifluoromethyl-phenylamino)-cyclohexyloxy]-1-[4-(5-trifluoromethoxy-benzooxazol-2-yl)-piperazin-1-yl]-ethanone] here?
Answer: ≥ 90%
